Patent publication US6642265B1, “Thrombopoietin mimetics” (SmithKline Beecham Corporation, priority 2002, dated 2003)

What was measured:
TPO receptor = biological target: T1, TPO receptor (Homo sapiens, UniProt P40238); assay: Luciferase assay in TPO-responsive BaF3 cell line; format: cell-based; conditions: TPO-responsive murine BaF3 cells
T1 construct: expressed in transfected cells; host or cells: murine BaF3 cells
T1 sequence (P40238 26-635): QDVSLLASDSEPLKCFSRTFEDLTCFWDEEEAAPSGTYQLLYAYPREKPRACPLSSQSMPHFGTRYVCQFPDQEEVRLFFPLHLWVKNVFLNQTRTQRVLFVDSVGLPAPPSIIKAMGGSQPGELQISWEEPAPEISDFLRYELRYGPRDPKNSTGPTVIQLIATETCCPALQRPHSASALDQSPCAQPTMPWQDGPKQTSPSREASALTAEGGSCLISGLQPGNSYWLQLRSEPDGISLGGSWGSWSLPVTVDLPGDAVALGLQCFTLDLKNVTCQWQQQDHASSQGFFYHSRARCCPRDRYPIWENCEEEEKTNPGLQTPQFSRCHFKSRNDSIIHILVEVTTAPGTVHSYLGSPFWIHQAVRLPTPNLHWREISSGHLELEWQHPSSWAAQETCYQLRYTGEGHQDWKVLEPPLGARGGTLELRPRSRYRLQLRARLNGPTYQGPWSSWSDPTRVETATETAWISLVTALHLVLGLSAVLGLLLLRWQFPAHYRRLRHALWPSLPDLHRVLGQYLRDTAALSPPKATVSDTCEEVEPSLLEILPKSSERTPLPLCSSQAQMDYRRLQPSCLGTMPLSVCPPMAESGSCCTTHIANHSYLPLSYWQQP
Procedure: Compounds of the present invention were tested for potency as mimetics of the TPO receptor in a Luciferase assay such as described in Lamb, et al., Nucleic Acids Research 23: 3283-3289 (1995) and Seidel, et al., Proc. Natl. Acad. Sci. USA 92: 3041-3045 (1995) by substituting a TPO-responsive BaF3 cell line (Vigon et a). Proc. Natl. Acad. Sci. USA 1992, 89, 5640-5644) for the HepG2 cells utilized therein. The murine BaF3 cells express TPO receptors and closely match the pattern of STAT (signal transducers and activators of transcription) activation observed in primary murine and human bone marrow cells.

SMILES | melting point | EC50 (TPO receptor) [nM] | activity relative to TPO in the luciferase assay (TPO receptor; efficacy printed with the EC50) [% TPO]
Cc1nn(-c2ccc(OCc3ccccc3)cc2)c(O)c1N=Nc1ccc(C(=O)O)cc1O [Example 3, 4-{[1-(4-Benzyloxyphenyl)-5-hydroxy-3-methyl-1H-pyrazol-4-yl]azo}-3-hydroxybenzoic Acid] | 258 to 260 °C (dec.) | – | –
Cc1ccc(-n2nc(C)c(N=Nc3ccc(C(=O)O)cc3O)c2O)cc1C [Example 6, 4-{[1-(3,4-Dimethylphenyl)-5-hydroxy-3-methyl-1H-pyrazol-4-yl]azo}-3-hydroxybenzoic Acid] | – | 1800 | 50
Cc1ccc(-n2nc(C)c(N=Nc3cc(Cl)cc(S(=O)(=O)O)c3O)c2O)cc1C [Example 11, 5-Chloro-3-{[1-(3,4-dimethylphenyl)-5-hydroxy-3-methyl-1H-pyrazol-4-yl]azo}-2-hydroxybenzenesulfonic Acid] | 240 °C (dec.) | – | –
